Data as given in ChEMBL document CHEMBL4495564, “Identification of inhibitors of SARS-Cov2 M-Pro enzymatic activity using a small molecule repurposing screen” (2020).
Several values for one entry are separate records, joined by “and”; a condition that tells them apart may be missing. Equal values may be shown once. Where a name gives a salt, the structure may show the parent alone.

Legend:
[1] = molecular target: Replicase polyprotein 1ab (Severe acute respiratory syndrome coronavirus 2, UniProt P0DTD1); assay: biochemical; format: functional
[2] = molecular target: Replicase polyprotein 1ab (Middle East respiratory syndrome-related coronavirus (isolate UnitedKingdom/H123990006/2012) (Betacoronavirus England 1) (Humancoronavirus EMC), UniProt K9N7C7); assay: biochemical; format: functional
Replicase polyprotein 1ab (Middle East respiratory syndrome-related coronavirus (isolate UnitedKingdom/H123990006/2012) (Betacoronavirus England 1) (Humancoronavirus EMC), UniProt K9N7C7), sequence (K9N7C7 3248-3553 limits assumed): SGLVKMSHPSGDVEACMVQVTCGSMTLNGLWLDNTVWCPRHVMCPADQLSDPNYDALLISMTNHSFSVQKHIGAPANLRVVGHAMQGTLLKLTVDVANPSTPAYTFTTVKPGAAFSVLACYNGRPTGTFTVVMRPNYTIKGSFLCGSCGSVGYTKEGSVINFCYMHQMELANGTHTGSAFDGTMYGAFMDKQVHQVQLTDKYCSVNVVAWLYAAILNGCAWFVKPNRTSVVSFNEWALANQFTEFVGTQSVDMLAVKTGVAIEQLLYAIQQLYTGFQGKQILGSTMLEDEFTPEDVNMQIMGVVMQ

[3] = molecular target: Chymotrypsin (Homo sapiens) (UniProt Q99895+P17538+P40313+Q6GPI1); assay: Chymotrypsin inhibition percentage at 10 µM by FRET kind of response from peptide substrate; format: functional
[4] = molecular target: Replicase polyprotein 1ab (Middle East respiratory syndrome-related coronavirus (isolate UnitedKingdom/H123990006/2012) (Betacoronavirus England 1) (Humancoronavirus EMC)) (UniProt K9N7C7); settings: at 10 µM

Row | Compound | IC50 [1] | IC50 [2] | inhibition [3] | inhibition [4] | IC50 ([2]; tested as the Zn salt or complex)
1 | Cc1c(OCC(F)(F)F)ccnc1C[S+]([O-])c1nc2ccccc2[nH]1 (centres undefined) [LANSOPRAZOLE] | 390 nM | > 10000 nM | 6.43% and 5.66% | 47% | –
2 | Nc1nc(S)c2ncn(C3OC(CO)C(O)C3O)c2n1 (centres undefined) | 1080 nM | – | 7.56% | – | –
3 | O=C(O)[C@@H](S)[C@@H](S)C(=O)O | 1720 nM | > 10000 nM | – | 0% | –
4 | CN1CCN(C2=C(Cl)C(=O)N(c3ccc(Cl)c(Cl)c3)C2=O)CC1 | < 1230 nM | – | 9.67% | – | –
5 | Cc1ccc(S(=O)(=O)/C=C/C#N)cc1 | 820 nM | > 10000 nM | – | 17% | –
6 | Cc1ccc(-n2sc(=O)n(Cc3ccc(F)cc3)c2=O)cc1 | 230 nM | > 10000 nM | 24.5% | 35% | –
7 | CC(CN1CC(=O)NC(=O)C1)N1CC(=O)NC(=O)C1 (centres undefined) [RAZOXANE] | 3190 nM | > 10000 nM | -0.92% | 7% | –
8 | Cc1ccc(S(=O)(=O)N[C@@H](Cc2ccccc2)C(=O)CCl)cc1 [TPCK] | 1370 nM | – | 39.6% | – | –
9 | COc1cccc2c1C(=O)c1c(O)c3c(c(O)c1C2=O)C[C@@](O)(/C(CO)=N/NC(=O)CCCCCN1C(=O)C=CC1=O)C[C@@H]3O[C@H]1C[C@H](N)[C@H](O)[C@H](C)O1 [ALDOXORUBICIN] | 580 nM | > 10000 nM | – | 1% | –
10 | S=C(S)N1CCCC1 [PYRROLIDINE DITHIOCARBAMIC ACID, AMMONIUM SALT] | 210 nM | > 10000 nM | – | 42% | –
11 | Sc1nnnn1-c1ccccc1 | 2360 nM | – | 4.48% | – | –
12 | Oc1cc(CNC(=S)/C=C/c2cc(O)c(O)c(Br)c2)cc(O)c1O | 480 nM | > 10000 nM | – | 20% | –
13 | C[C@@](Cc1ccc(O)c(O)c1)(NN)C(=O)O [CARBIDOPA ANHYDROUS] | 3550 nM | > 10000 nM | – | 0% | –
14 | CCOc1cc(C(Nc2cc(C)ccn2)c2ccc3cccnc3c2O)ccc1OC (centres undefined) | < 270 nM | – | 13.3% | – | –
15 | CCOC(=O)c1c(N)sc(-c2ccccc2)c1C | 3190 nM | – | 5.82% | – | –
16 | MERBROMIN | 240 nM | > 10000 nM | – | – | –

Row | Compound | IC50 [1] | IC50 [2] | inhibition [3] | inhibition [4] | IC50 ([2]; tested as the Zn salt or complex)
17 | O=C1C=Cc2cc(Br)ccc2C1=O | 160 nM | > 10000 nM | 8.47% | 9% and 0% | –
18 | CC(C)Nc1cccnc1N1CCN(C(=O)c2cc3cc(NS(C)(=O)=O)ccc3[nH]2)CC1 [DELAVIRDINE MESYLATE] | 3990 nM | > 10000 nM | 9.13% | 34% | –
19 | Nc1ccc2cc3ccc(N)cc3nc2c1 [PROFLAVINE] | 360 nM | > 10000 nM | 16.3% | – | –
20 | Sc1nnc(Nc2ccccc2)s1 | 390 nM | – | 4.67% | – | –
21 | O=c1c(O)cccc2cc(O)c(O)c(O)c12 [PURPUROGALLIN] | 4580 nM | – | 9.33% | – | –
22 | AUROTHIOGLUCOSE | 1740 nM | 10000 nM | – | – | –
23 | C/C=C1\C(OC2OC(CO)C(O)C(O)C2O)OC=C(C(=O)OC)C1CC(=O)OCCc1ccc(O)c(O)c1 (centres undefined) | 3380 nM | > 10000 nM | – | 0% | –
24 | CC(C)(C)OC(=O)NCCc1nnc(S(=O)(=O)Cc2ccc(Cl)cc2Cl)o1 | 4220 nM | – | 103% | – | –
25 | Cc1c(-c2cnccn2)ssc1=S [OLTIPRAZ] | 620 nM | > 10000 nM | 9.89% | 10% and 0% | –
26 | CN1CCN(C(=O)c2ccc(-c3ccc4c(C=O)c(O)ccc4c3)s2)CC1 | 1330 nM | – | 9.67% | – | –
27 | CC(C)c1cc(CNc2nc(Nc3cc(C4CC4)[nH]n3)cc(N3CCN(C)CC3)n2)on1 [XL-228] | 1490 nM | > 10000 nM | – | 9% | –
28 | [O-][n+]1ccccc1S [PYRITHIONE ZINC] | 2460 nM | – | – | – | > 10000 nM
29 | PHENYLMERCURIC ACETATE | 10 nM | > 10000 nM | – | – | –
30 | O=C1C(Cl)=C(Cl)C(=O)C(Cl)=C1Cl [CHLORANIL] | < 20 nM | – | 10.1% | – | –
31 | C/N=c1/nc(-c2ccccc2)n(-c2ccccc2)s1 | 980 nM | > 10000 nM | – | 44% | –
